Values after ≈ are worked out from the molar mass of the structure shown.
Test: Water solubility
Assay type: physicochemical

Compound | water solubility
CC[C@@]1(O)C(=O)OCc2c1cc1n(c2=O)Cc2cc3cc(O)ccc3nc2-1 [Example 10HCPT, 10-hydroxycamptothecin] | ~6 µM (≈ 2.19 µg/mL)
[O-]c1c(-c2ccccc2)cc(-[n+]2c(-c3ccccc3)cc(-c3ccccc3)cc2-c2ccccc2)cc1-c1ccccc1 [Reichardt's dye] | 10^−6 M

From patent US20040086479A1, “Novel dendritic polymers, crosslinked gels, and their biomedical uses” (DUKE UNIVERSITY, priority 2001, published 2004)
